This experiment relates to KB. As to the kind of experiment: Cytotoxicity against human KB cells. It counts as functional. The following applies: read-out: ED50 (the source's name).

This passage reports EC50 results from ChEMBL document CHEMBL1151664, “Antitumor agents, 75. Synthesis of cytotoxic anthraquinones digiferruginol and morindaparvin-B” (1985).

≈ marks a conversion by molar mass, not a printed value.

Take `O=C1c2ccccc2C(=O)c2c1ccc(CO)c2O` [DIGIFERRUGINOL]: the EC50 came to 0.09 µg/mL (≈ 0.354 µM).
